Where “and” joins values, the source holds several entries; their conditions need not be identical. Identical values can stand only once.
Target: T1, Na-K-ATPase (Bos taurus, UniProt Q08DA1)
T1 construct: 86Rb uptake
Experiment: Microassay: inhibition of ^86 Rb uptake by MDBK cell cultures
Format: cell-based, bovine
From the text: Such a cell line is available from the American Type Culture Collection, 12301 Park Lawn Drive, Rockville, Md. 20852. USA, where it is identified by the reference ATCC CCL34 (certified cell line). The preferred method of assaying bioactivity according to the present invention, described in Example II below, employs a microassay which is based upon the ability of the natriuretic compound of the present invention to inhibit ^86 Rb influx by MDBK cells grown in culture. Ouabain (10^-5 M) is used as the reference inhibitor.
The natriuretic activity of the Natriuretic Hormone can be ascertained by its effect on the uptake of ^86 Rb by MDBK ([…] Bovine Kidney Cell) cultures. […]
Approximately 200,000 MDBK cells were plated in trays containing 12 […] wells, and grown for four days at 37° C. in Dulbecco's modified Eagle media (DMEM) (Gibco #430-2100), to which was added (per liter) 3.7 g sodium bicarbonate, 5 mg phenol red, 10% fetal calf serum, 10^6 units penicillin-G sulfate, 0.1 g equivalent base streptomycin sulfate, 7.34 mg polymyxin-B sulfate, and 3.4 mg fungizone and maintained in an atmosphere of 5% CO2, 95% air. […] 0.5 ml of 5% TCA was added to each well and incubated for 10 minutes at 37° C. to release radioactivity inside the cells. […] The ^86 Rb activity was counted in a scintillation counter (Beckman LS 3-801). […] Data were recorded as cpm/mg cell protein. […]

C[C@@H]1O[C@@H](O[C@H]2C[C@@H](O)[C@]3(CO)[C@H]4[C@H](O)C[C@]5(C)[C@@H](C6=CC(=O)OC6)CC[C@]5(O)[C@@H]4CC[C@]3(O)C2)[C@H](O)[C@H](O)[C@H]1O [Ouabain]
^86 Rb uptake, cpm/mg of protein (10^-5 M ouabain, positive control, run in duplicate): 17,649 cpm/mg of protein and 15,611 cpm/mg of protein
inhibition at 10 µM (MDBK, read-out: % inhibition of ^86 Rb uptake): 77.7%
